Data set [1] can be described thus: preclinical pharmacology of safingol. To be noted: mouse, in vivo, mice. As to the method:
Based on the mice studies applicants have predicted that in order to achieve meaningful chemopotentiation with either DOX or cisplatin applicants need to deliver the equivalent mouse dose of 5 mg/kg to 20 mg/kg safingol. […] From the pharmacology data obtained thus far from the patients treated with escalating doses of safingol and 45 mg/m^2 of DOX, it appears that applicants are approaching these target levels.

The conditions of data set [2]: rat, in vivo; cited from earlier work.
Data set [3] concerns the target cyclic-adenosine monophosphate-dependent protein kinase A. To be noted: read-out: concentration for 50% inhibition of protein kinase A; safingol; cited from earlier work.
The conditions of data set [4]: intravenous safingol in emulsion; cited from earlier work.
Data set [5] can be described thus: phase I trial safingol with doxorubicin: plasma pharmacokinetics. It is filed as in vivo, patients. To be noted: human, intravenous. As to the method:
(iii) Safingol pharmacokinetics appear linear with increasing dose: The pharmacokinetics of patients treated with safingol and DOX at 45 mg/m^2 is shown below: […]

On the set-up of data set [6]: species or system patients. To be noted: in vivo. As to the method: Individual patients could receive up to six cycles of treatment with the same dose of safingol and doxorubicin (DOX) every 21 days, until signs of tumor progression or unacceptable toxicity occurs, or until the patient's cumulative life-time dose of doxorubicin exceeds 400 mg/m^2 with an additional cycle of treatment. Prior DOX therapy was allowed up to a dose of 280 mg/m^2 as long as the left ventricular ejection fraction was>50%. The starting dose of safingol was 15 mg/m^2.
In fact the white blood count nadirs have increased with increasing safingol dose. Dose escalation above 120 mg/m^2 is planned.
This was associated with no changes in reticulocyte count, no evidence of hemolysis on the peripheral smear, no “pink” discoloration to the plasma, and no evidence or urine hemosiderin. This was believed to be related to relatively poor venous access which only became apparent on the first day of therapy. The patient was retreated according to applicants, protocol criteria for grade I hemolysis which included infusion of safingol through a central vein and at one half the concentration (twice the total volume but the same total dose). Under these conditions the patient has experienced no further evidence of hemolysis.

The next data set has as its system SK-GT-1. Nature of the data set: clonogenic assay, resistance relative to MKN-74. In kind it is cell-based, human. To be noted: clonogenic survival ratio, 10 μg/ml CDDP, 5 μg/ml MMC, 50 FM 5-FU. An excerpt: (§1) The basis of drug resistance in these disease has not been well defined. […] For gastric cancer applicants have been successful in establishing five long-term cell lines, SK-GT-1, SK-GT-2, SK-GT-4, SK-GT-5, and SK-GT-6 for Sloan Kettering Gastric Tumor (12,13) none of which express P-glycoprotein (14). Yet, all these tumors are resistant to chemotherapy and to the induction of apoptosis. Applicants have reported that the relative sensitivity of these gastric cancer cells to chemotherapy is influenced by their p53 status (14).

In the next data set the test system is NU-GC-4. Nature of the data set: clonogenic assay, resistance relative to MKN-74. In kind it is cell-based, human. To be noted: 10 μg/ml CDDP, 5 μg/ml MMC.
Source text: as §1

The next data set relates to SK-GT-5. The data set is described as follows: clonogenic assay, resistance relative to MKN-74. To be noted: 10 μg/ml CDDP, 5 μg/ml MMC, 50 FM 5-FU. It is filed as cell-based, human.
Source text: as §1

Another data set has as its system SK-GT-2. Nature of the data set: clonogenic assay, resistance relative to MKN-74. In kind it is cell-based, human. To be noted: 10 μg/ml CDDP, 5 μg/ml MMC, 50 FM 5-FU.
Source text: as §1

For a further data set, the system named is MKN-74. The data set is described as follows: clonogenic assay, resistance relative to MKN-74. To be noted: MKN-74 (reference); 10 μg/ml CDDP, 5 μg/ml MMC, 50 FM 5-FU. In kind it is cell-based, human.
Source text: as §1

For the next data set, the system named is SK-GT-2 cells. Nature of the data set: apoptosis by QFM, Hoechst-33258 staining. To be noted: 24 hours. It is filed as cell-based, human. As to the method:
(i) Safingol enhances MMC-induced apoptosis: SK-GT-5 cells, which have a mutated p53 gene (9), were treated with safingol in the presence or absence of MMC for 24 hours. For determination of apoptosis SK-GT-5 cells were treated according to one of several conditions: (i) no drug (control) for 24 hours, (ii) Safingol alone (50 μM) for 24 hours. (This concentration represents the highest non-toxic dose of safingol for the SK-GT-5 cells, as determined by cell proliferation studies, and slightly exceeds the safingol concentration (30 μM) which inhibits PKC enzyme activity by 50% in vitro.), (iii) Mitomycin-C alone (2.5 μg/ml) for 24 hours, (iv) Mitomycin-C alone (5 μg/ml) for 24 hours, (v) the combination of safingol (50 μM) and Mitomycin-C (2.5 μg/ml) for 24 hours, (vi) the combination of safingol (50 μM) and Mitomycin-C (5 μg/ml) for 24 hours. Apoptosis was measured by quantitative fluorescent microscopy (QFM) of nuclear changes induced by apoptosis, as determined by bisbenzimide trihydrochloride (Hoescht-33258) staining of condensed nuclear chromatin (3,5). For the QFM duplicate samples of 500 cells each were counted and scored for the incidence of apoptotic chromatin condensation using an Olympus BH-2 fluorescence microscope.
(ii) UCN-01 enhances MMC-induced apoptosis: SK-GT-2 cells, which have a mutation in p53, were treated with increasing concentrations of UCN-01 in the presence or absence of a fixed dose of MMC for 24 hours.
Both UCN-01 and Flavo inhibit PKC. These drugs are cytotoxic to tumor cells and have been reported to induce apoptosis. […] In order to test this hypothesis we elected to treat gastric cancer cells, MKN-74 and SK-GT-2, as well as breast cancer cells, MDA-MB-468, with UCN-01 (7.5 to 10 μM) or Flavo (300 nM) in the presence or absence of MMC (5 μg/ml) or Taxol (50 μM) for 24 hours. Induction of apoptosis was estimated by counting the frequency of condensed nuclear chromatin with Hoechst-33258 stain in duplicate samples of 400 cells.

Molecules are shown by their SMILES.

In the case of `CCCCCCCCCCCCCCC[C@H](O)[C@@H](N)CO` [safingol, L-threo-dihydrosphingosine], the area under the curve (AUC) in [1] (5 mg/kg safingol) was determined as 668 ng·h/mL; in [1] (20 mg/kg safingol), 2700 ng·h/mL; in data set [5] (15 mg/m2, dose level 15 mg/m^2, read-out: AUC without DOX (first column)), 168 ng·h/mL; in data set [5] (15 mg/m2, dose level 15 mg/m^2, read-out: AUC without DOX (second column)), 161 ng·h/mL; in data set [5] (30 mg/m2, dose level 30 mg/m^2, read-out: AUC without DOX (first column)) it was 501 ng·h/mL; in data set [5] (30 mg/m2, dose level 30 mg/m^2, read-out: AUC without DOX (second column)) it was 428 ng·h/mL. In addition, the exposure (AUC) worked out at 531 ng·h/mL in data set [5] (60 mg/m2, dose level 60 mg/m^2, read-out: AUC without DOX (first column)); 501 ng·h/mL in data set [5] (60 mg/m2, dose level 60 mg/m^2, read-out: AUC without DOX (second column)); 1230 ng·h/mL in [5] (120 mg/m2, dose level 120 mg/m^2, read-out: AUC without DOX (first column)); 1230 ng·h/mL in data set [5] (120 mg/m2, dose level 120 mg/m^2, read-out: AUC without DOX (second column)). The Cmax in data set [1] (5 mg/kg safingol) amounted to 1800 ng/mL; in [1] (20 mg/kg safingol), 7020 ng/mL; in data set [5] (15 mg/m2, dose level 15 mg/m^2), 199 ng/mL; in data set [5] (30 mg/m2, dose level 30 mg/m^2), 336 ng/mL; in [5] (60 mg/m2, dose level 60 mg/m^2), 422 ng/mL; in data set [5] (120 mg/m2, dose level 120 mg/m^2) it was 988 ng/mL. In addition, the “potentiation of toxicity of chemotherapeutic agents” value in [2] was “did not potentiate the myelotoxicity of these agents”. In [3], the IC50 was > 218 µM. Besides, the “clinical pathology and histopathology findings” value in data set [4] was “venous irritation and transient intravascular hemolysis”. Besides, the “dose limiting hematologic toxicity” value in data set [6] is recorded as “no-dose limiting hematologic toxicity”. The hemolysis result in data set [6] is listed as “only one patient has experienced a grade I hemolysis”.

With `CO[C@@]12[C@H](COC(N)=O)C3=C(C(=O)C(C)=C(N)C3=O)N1C[C@@H]1N[C@@H]12` [MMC, Mitomycin-C], the “Fold-Increase in Resistance Relative to MKN-74 (p53wt)” value in the data set on SK-GT-1 is 166X; with NU-GC-4, 10X; in the data set with SK-GT-5 it was 55X; in the data set on SK-GT-2, 106X; with MKN-74, 1X. Moreover, the “percentage of cells undergoing apoptosis (QFM)” value in the data set on SK-GT-2 cells (MMC alone 5.0 μg/ml) is 7%±3%. Besides, the “induction of apoptosis (condensed chromatin, 400 cells)” value in the data set with SK-GT-2 cells (UCN-01 7.5 to 10 μM, MMC 5 μg/ml) is listed as 11% ± 2.

As a reminder, the AUC is the area under the concentration-time curve, a measure of exposure. By Cmax is commonly meant the highest concentration seen after dosing.

These data come from patent US7045495B2 (Sloan-Kettering Institute for Cancer Research, priority 1996, dated 2006).
